± gives the expanded uncertainty stated by the source.
Tests used:
[1] = xn = mol fraction of the nth substance listed; conditions: x2 = 0; for surface tension liquid-gas: Tensiometer with plate; for viscosity / mass density: 101 kPa, Liquid; for viscosity: Capillary tube (Ostwald / Ubbelohde) method; for mass density: Vibrating tube method
[2] = refractive index (Na D-line) (dimensionless); xn = mol fraction of the nth substance listed; conditions: 101 kPa, Liquid, Standard Abbe refractometry, x2 = 0

O [water] + CN1CCNCC1
Conditions | mass density, [1] [kg/m3] | refractive index, [2] | surface tension liquid-gas, [1] [mN/m] | viscosity, [1] [mPa·s]
293.15 K | – | 1.333 ± 0.001 | 72.09 ± 0.12 | –
298.15 K | – | 1.333 ± 0.001 | – | 0.894 ± 0.019
303.15 K | – | 1.332 ± 0.001 | 71.27 ± 0.12 | 0.8 ± 0.017
308.15 K | – | 1.331 ± 0.001 | 70.44 ± 0.12 | –
313.15 K | – | 1.331 ± 0.001 | 69.66 ± 0.12 | 0.656 ± 0.014
318.15 K | – | 1.331 ± 0.001 | 68.83 ± 0.12 | –
323.15 K | – | 1.329 ± 0.001 | 67.95 ± 0.12 | –
325.15 K | 988.03 ± 0.05 | – | – | 0.55 ± 0.012
328.15 K | – | 1.328 ± 0.001 | – | –
333.15 K | 983.2 ± 0.05 | 1.327 ± 0.001 | 66.23 ± 0.12 | 0.47 ± 0.01
343.15 K | 977.78 ± 0.05 | – | – | 0.409 ± 0.009

Reference: the NIST ThermoML archive (doi:10.1016/j.jct.2011.06.020)
